Assay: Na2S2O5 in an open environment: SO2 concentration in air measured daily
Type: physicochemical
Protocol: FIG. 12A and FIG. 12B show the results of a test that was performed to establish how Na2S2O5 reacts with the environment, and the effect of changes in relative humidity.
0.1 g of Na2S2O5 on sampling “boats” were placed on top of a counter; i.e., in an “open” environment. The concentration of SO2 gas (in parts per million, ppm) in the air at about 2.5 cm (about 1″) above the Na2S2O5 was measured daily for more than 50 days of testing. The relative humidity was also measured for each day of testing.
This is in agreement with the known chemistry of Na2S2O5.

average SO2 concentration generated (0.1 g Na2S2O5, open environment, about 2.5 cm above sample, up to 50 days): 0.5 ppm
duration of continuous SO2 generation (summary of the several tests): more than 50 days
Compound: O=S([O-])S(=O)(=O)[O-].[Na+].[Na+] [Na2S2O5, sodium metabisulfite]

From patent US20150196022A1, “ABSORBENT PAD HAVING THREE OR MORE MODULES TO ENHANCE PRESERVATION OF FLOWERS” (Paper-Pak Industries, priority 2014, published 2015)
